“Also recorded” adds a separate entry of the source.
System: late gestating sows
Test: Calcium, phosphorus and energy balance / apparent total tract digestibility (ATTD) study in late gestating sows fed diets with supplemental 1-α-OH-D3
Assay type: in vivo, pig
Details: for ATTD of Ca / ATTD of Dry Matter / ATTD of P / ATTD of gross energy / Absorbed Ca / Absorbed P / Fecal Ca output / Fecal P output / Fecal excretion / Urine Ca output / Urine P output: 12.5 mg/kg diet; for fecal P output, in words / urine P output, in words: vs no supplement
Source text: Thirty six gestating sows were allotted to three blocks of twelve sows using a randomized complete block design. Four diets were fed to the twelve sows in each block. Thus, there were a total of nine replicate sows per diet. Sows were fed experimental diets from day 91 to 105 of gestation and were housed individually in metabolism crates during this period. Metabolism crates were equipped with a feeder, a nipple drinker, and fully slatted T-bar floors. A screen floor and a urine pan were installed below the T-bar floors to allow for collection of feces and urine, respectively. The initial five days of each period in the metabolism crates were considered the adaptation period to the diets followed by four days of fecal collection using the marker to marker procedure (Adeola, O. 2001. Digestion and balance techniques in pigs. In: A. J. Lewis and L. L. Southern, editors, Swine Nutrition. CRC Press, Washington, D.C., USA. p. 903-916.). Fecal collection was initiated when the first marker (i.e., indigo carmine) appeared in the feces and ceased when the second marker (i.e., chromic oxide) appeared (Id.). Urine was collected in buckets placed under the urine pans with 50 mL of 3N HCl from day six in the morning until day ten in the morning. Buckets were emptied daily, the weight of the collected urine was recorded, and 10% of the collected urine was stored at −20° C. until subsampling.
Diets were formulated using a 2×2 factorial arrangement with two levels of calcium and phosphorus (i.e., 100% and 75% of the requirement; NRC, 2012) with a constant calcium to phosphorus ratio (See Table 1) without or with supplemental 1-α-OH-D3 (Alpha D3, Premex Inc., NC). The high level of calcium and phosphorus was 100% requirement for late gestation sows. The low level of calcium phosphorus was 75% of requirement for late gestation sows (NRC. 2012. Nutrient requirements of swine. 11th rev. ed. Natl. Acad. Press, Washington, D.C., USA). The corn-1-α-OH-D3 premix provided 12.5 mg Alpha D3 per kg of complete diet; 1,000 g of 1-α-OH-D3 premix was prepared by mixing 417 mg Alpha D3 and 999.583 g ground corn.
The vitamin-micromineral premix provided the following quantities of vitamins and micro minerals per kilogram of complete diet: vitamin A as retinyl acetate, 10,622 IU; vitamin D3 as cholecalciferol, 1,660 IU; vitamin E as […], 66 IU; vitamin K as menadione nicotinamide bisulfate, 1.40 mg; thiamin as thiamine mononitrate, 1.08 mg; riboflavin, 6.49 mg; pyridoxine as pyridoxine hydrochloride, 0.98 mg; vitamin B12, 0.03 mg; D-pantothenic acid as D-calcium pantothenate, 23.2 mg; niacin, 43.4 mg; folic acid, 1.56 mg; biotin, 0.44 mg; Cu, 20 mg as copper chloride; Fe, 123 mg as iron sulfate; I, 1.24 mg as ethylenediamine dihydriodide; Mn, 59.4 mg as manganese hydroxychloride; Se, 0.27 mg as sodium selenite and selenium yeast; and Zn, 124.7 mg as zinc hydroxychloride.
All vitamins and minerals except calcium and phosphorus were included in all diets to meet or exceed nutrient requirements (NRC, 2012). Daily feed allotments were provided in a meal that was fed at 7 AM throughout the experiment. The daily feed allowance was 1.5 times the maintenance energy requirement for gestating sows based on the initial body weight of sows (i.e., 100 kcal ME/kg BW0.75; NRC. 2012. Nutrient requirements of swine. 11th rev. ed. Natl. Acad. Press, Washington, D.C., USA). Water was available at all times.
At the conclusion of the testing, urine samples were thawed and mixed within animal and collection period and subsamples were collected. Fecal samples were stored at −20° C. as soon as collected, and at the conclusion of the experiment, samples were dried at 65° C. in a forced air oven and finely ground through a 1-mm screen before analysis using a Wiley mill (Model 4; Thomas Scientific, Swedesboro, N.J.). […]

[1] = high level of dietary calcium and phosphorus, P<0.05
[2] = low level of dietary calcium and phosphorus
[3] = supplemented vs no supplemental 1-α-OH-D3, main effect, P<0.01
[4] = supplemented vs no supplemental 1-α-OH-D3, regardless of dietary Ca and P levels, P<0.05

## C=C1/C(=C\C=C2/CCC[C@]3(C)[C@@H]([C@H](C)CCCC(C)C)CC[C@@H]23)C[C@@H](O)C[C@@H]1O [1-α-OH-D3, 1-alpha-hydroxycholecalciferol]
High Ca and P levels
  ATTD of Ca: 30.25%
  ATTD of Dry Matter: 87.72%
  ATTD of P: 34.7%
  ATTD of gross energy: 87.3%
  Absorbed Ca: 6.63 grams/day
  Absorbed P: 5.19 grams/day
  Fecal Ca output: 15.00 grams/day
  Fecal P output: 9.71 grams/day
  Fecal excretion: 0.32 kg dry matter/d
  Urine Ca output: 0.59 grams/day
  Urine P output: 0.99 grams/day
Low Ca and P levels
  ATTD of Ca: 30.49%
  ATTD of Dry Matter: 88.31%
  ATTD of P: 29.63%
  ATTD of gross energy: 87.5%
  Absorbed Ca: 4.66 grams/day
  Absorbed P: 3.16 grams/day
  Fecal Ca output: 10.89 grams/day
  Fecal P output: 7.67 grams/day
  Fecal excretion: 0.30 kg dry matter/d
  Urine Ca output: 0.99 grams/day
  Urine P output: 0.12 grams/day
[1]
  fecal P output, in words: decreased
  urine P output, in words: decreased
[2]
  fecal P output, in words: no difference
  urine P output, in words: no difference
Supplemented vs no supplemental 1-α-OH-D3, main effect
  ATTD of dry matter, in words: greater
Supplemented vs no supplemental 1-α-OH-D3, main effect over both Ca and P levels, P<0.05
  fecal excretion, in words: less
[3]
  ATTD of calcium, in words: greater; also recorded: increased
  ATTD of gross energy, in words: increases
  Fecal calcium output, in words: less
  absorbed calcium, in words: greater
  calcium retention, in words: greater; also recorded: increased
  concentration of digestible energy in diets, in words: increases
  urine calcium outputs, in words: increased
[4]
  ATTD of phosphorus, in words: greater; also recorded: increased
  absorbed phosphorus, in words: greater
  phosphorus retention, in words: greater; also recorded: increased

Source: US20230135029A1, “COMPOSITIONS AND METHODS FOR INCREASING DIGESTIBILITY OF CALCIUM AND PHOSPHOROUS IN PIGS” (Premex, Inc., priority 2020, published 2023)
